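GI50 marks 50% less growth. TGI denotes the concentration required for complete inhibition of growth.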
What was measured:
Experiment in all cases: DTP human tumour cell line panel, 384-well format
[1] = system: 786-0 renal
[2] = system: A498 renal
[3] = system: A549 NSCLC
[4] = system: ACHN renal
[5] = system: BT-549 breast
[6] = system: CCRF-CEM leukemia
[7] = system: COLO 205 colon
[8] = system: DU-145 prostate
[9] = system: EKVX NSCLC
[10] = system: HCC-2998 colon
[11] = system: HCT-116 colon
[12] = system: HCT-15 colon
[13] = system: HL-60(TB) leukemia
[14] = system: HOP-62 NSCLC
[15] = system: HOP-92 NSCLC
[16] = system: HS 578T breast
[17] = system: HT29 colon
[18] = system: IGROV1 ovarian
[19] = system: LOX IMVI melanoma
[20] = system: MALME-3M melanoma
[21] = system: MCF7 breast
[22] = system: MDA-MB-231 breast
[23] = system: MDA-MB-435 melanoma
[24] = system: MOLT-4 leukemia
[25] = system: NCI-H226 lung
[26] = system: NCI-H23 lung
[27] = system: NCI-H322M lung
[28] = system: NCI-H460 NSCLC
[29] = system: NCI-H522 lung
[30] = system: NCI/ADR-RES ovarian
[31] = system: OVCAR-3 ovarian
[32] = system: OVCAR-4 ovarian
[33] = system: OVCAR-5 ovarian
[34] = system: OVCAR-8 ovarian
[35] = system: RPMI-8226 leukemia
[36] = system: RXF 393 renal
[37] = system: SK-MEL-2 melanoma
[38] = system: SK-MEL-28 melanoma
[39] = system: SK-MEL-5 melanoma
[40] = system: SK-OV-3 ovarian
[41] = system: SNB-19 CNS
[42] = system: SR leukemia
[43] = system: T-47D breast
[44] = system: TK-10 renal
[45] = system: U251 glioblastoma
[46] = system: UACC-62 melanoma
[47] = system: UO-31 renal

Nc1nc(OCc2cc(Br)cs2)c2[nH]cnc2n1
GI50 [1]: 27.3 µM | TGI [1]: > 100 µM | GI50 [2]: 30.3 µM | TGI [2]: > 100 µM | GI50 [3]: 42.6 µM | TGI [3]: > 100 µM | GI50 [4]: 30.2 µM | TGI [4]: > 100 µM | GI50 [5]: 21.8 µM | TGI [5]: 53.5 µM | GI50 [6]: 19.4 µM | TGI [6]: 40.3 µM | GI50 [7]: 72.9 µM | TGI [7]: > 100 µM | GI50 [8]: 44.7 µM | TGI [8]: > 100 µM | GI50 [9]: 39.9 µM | TGI [9]: > 100 µM | GI50 [10]: 66.7 µM | TGI [10]: > 100 µM | GI50 [11]: 38.4 µM | TGI [11]: > 100 µM | GI50 [12]: 33.9 µM | TGI [12]: > 100 µM | GI50 [13]: 18 µM | TGI [13]: 35.8 µM | GI50 [14]: 36.7 µM | TGI [14]: 99.4 µM | GI50 [15]: 40.8 µM | TGI [15]: > 100 µM | GI50 [16]: 22.8 µM | TGI [16]: 61.9 µM | GI50 [17]: 46 µM | TGI [17]: > 100 µM | GI50 [18]: 30.7 µM | TGI [18]: > 100 µM | GI50 [19]: 22.5 µM | TGI [19]: 47.8 µM | GI50 [20]: 55.1 µM | TGI [20]: > 100 µM | GI50 [21]: 32.6 µM | TGI [21]: > 100 µM | GI50 [22]: 40.7 µM | TGI [22]: > 100 µM | GI50 [23]: 43.1 µM | TGI [23]: > 100 µM | GI50 [24]: 17.3 µM | TGI [24]: 37.5 µM | GI50 [25]: 45.9 µM | TGI [25]: 96.9 µM | GI50 [26]: 42.4 µM | TGI [26]: > 100 µM | GI50 [27]: 30.7 µM | TGI [27]: 80.3 µM | GI50 [28]: 40.3 µM | TGI [28]: > 100 µM | GI50 [29]: 27.6 µM | TGI [29]: > 77 µM | GI50 [30]: 53.7 µM | TGI [30]: > 100 µM | GI50 [31]: 61.8 µM | TGI [31]: > 100 µM | GI50 [32]: > 78.7 µM | TGI [32]: > 100 µM | GI50 [33]: > 95.3 µM | TGI [33]: > 100 µM | GI50 [34]: 45.9 µM | TGI [34]: > 100 µM | GI50 [35]: 20.4 µM | TGI [35]: 40.4 µM | GI50 [36]: 24.5 µM | TGI [36]: 62.7 µM | GI50 [37]: 35.5 µM | TGI [37]: 73.6 µM | GI50 [38]: > 100 µM | TGI [38]: > 100 µM | GI50 [39]: 40.9 µM | TGI [39]: > 100 µM | GI50 [40]: 29.1 µM | TGI [40]: 74.7 µM | GI50 [41]: 70 µM | TGI [41]: > 100 µM | GI50 [42]: 8.96 µM | TGI [42]: 25.2 µM | GI50 [43]: 23.4 µM | TGI [43]: 63.5 µM | GI50 [44]: 30.5 µM | TGI [44]: > 100 µM | GI50 [45]: 31.3 µM | TGI [45]: > 95.1 µM | GI50 [46]: 31.2 µM | TGI [46]: > 100 µM | GI50 [47]: 4.73 µM | TGI [47]: > 100 µM

Reference: PubChem BioAssay (NCI)
